# From patent US12590126B2, “Compounds for selective disruption of protein-protein interactions” (SyntheX, Inc., priority 2017, dated 2026)
# Where a SMILES comes first, the peptide text is derived from it. Where no end group is shown, it is not given here. [ ]: non-standard residue; d: D form. The star is where a group is joined. C6_5FAM = 5-carboxyfluorescein (5FAM) label attached via a 6-carbon linker to the lysine epsilon amino group, O=C(NCCCCCC(=O)*)c1ccc2c(c1)C(=O)OC21c2ccc(O)cc2Oc2cc(O)ccc21; Dansyl = CN(C)c1cccc2c(S(=O)(=O)*)cccc12; 2Nal = N[C@@H](Cc1ccc2ccccc2c1)C(=O)O; dNle = CCCC[C@@H](N)C(=O)O; Sar = CNCC(=O)O
# System: SSP-25 cells
# Experiment: xCELLigence cell death assay in SSP-25 cells (cellular assay for RAD51 inhibition)
# Format: cell-based
# Conditions: concentration gradient added at 20 hour mark, only values with R^>0.85 shown
# Experimental: The efficacy of the peptides described herein was assessed by their ability to cause death in SSP-25 cells, which have amplification of RAD51 and are dependent on its activity.
# First, 5,000 SSP25 cells were plated, and adherence and growth was measured for 20 hours using live measurements of current impedance through the plate using the xCELLigence™ instrument. At the 20 hour mark, a concentration gradient of each compound or a PBS control was added to the SSP-25 cells, which were cultured in […] RMPI media with 10% FBS. […] Only values with confidence and R^>0.85 are shown.
row,Molecule,IC50
1,"Ac-lmrsvrlrvGlrkaG: : : (cFΦR4) (Ac-[dL][dM][dR][dS][dV][dR][dL][dR][dV]G[dL][dR][dK][dA]GF[2Nal]RRRRQ; not fully specified (bridges); printed as Ac-lmrsvrlrvGlrkaG: : : (cFΦR4); also: core joined by ':::' to cyclo(FΦRRRRQ), junction not defined) [Compound 3]",7.3 µM
2,Ac-lmrsvrlrvGlrkrrrrrrrk(C6_5FAM)-NH2 (Ac-[dL][dM][dR][dS][dV][dR][dL][dR][dV]G[dL][dR][dK][dR][dR][dR][dR][dR][dR][dR][dK](C6_5FAM)-NH2; SMILES CSCC[C@@H](NC(=O)[C@@H](CC(C)C)NC(C)=O)C(=O)N[C@H](CCCNC(=N)N)C(=O)N[C@H](CO)C(=O)N[C@@H](C(=O)N[C@H](CCCNC(=N)N)C(=O)N[C@H](CC(C)C)C(=O)N[C@H](CCCNC(=N)N)C(=O)N[C@@H](C(=O)NCC(=O)N[C@H](CC(C)C)C(=O)N[C@H](CCCNC(=N)N)C(=O)N[C@H](CCCCN)C(=O)N[C@H](CCCNC(=N)N)C(=O)N[C@H](CCCNC(=N)N)C(=O)N[C@H](CCCNC(=N)N)C(=O)N[C@H](CCCNC(=N)N)C(=O)N[C@H](CCCNC(=N)N)C(=O)N[C@H](CCCNC(=N)N)C(=O)N[C@H](CCCNC(=N)N)C(=O)N[C@H](CCCCNC(=O)CCCCCNC(=O)c1ccc2c(c1)C(=O)OC21c2ccc(O)cc2Oc2cc(O)ccc21)C(N)=O)C(C)C)C(C)C) [Compound 13],10 µM
3,Ac-lmrsvrlrvGlrr-NH2 (Ac-[dL][dM][dR][dS][dV][dR][dL][dR][dV]G[dL][dR][dR]-NH2; SMILES CSCC[C@@H](NC(=O)[C@@H](CC(C)C)NC(C)=O)C(=O)N[C@H](CCCNC(=N)N)C(=O)N[C@H](CO)C(=O)N[C@@H](C(=O)N[C@H](CCCNC(=N)N)C(=O)N[C@H](CC(C)C)C(=O)N[C@H](CCCNC(=N)N)C(=O)N[C@@H](C(=O)NCC(=O)N[C@H](CC(C)C)C(=O)N[C@H](CCCNC(=N)N)C(=O)N[C@H](CCCNC(=N)N)C(N)=O)C(C)C)C(C)C) [Compound 4],67 µM
4,Ac-lvrsvGlrrrrrrrr-NH2 (Ac-[dL][dV][dR][dS][dV]G[dL][dR][dR][dR][dR][dR][dR][dR][dR]-NH2; SMILES CC(=O)N[C@H](CC(C)C)C(=O)N[C@@H](C(=O)N[C@H](CCCNC(=N)N)C(=O)N[C@H](CO)C(=O)N[C@@H](C(=O)NCC(=O)N[C@H](CC(C)C)C(=O)N[C@H](CCCNC(=N)N)C(=O)N[C@H](CCCNC(=N)N)C(=O)N[C@H](CCCNC(=N)N)C(=O)N[C@H](CCCNC(=N)N)C(=O)N[C@H](CCCNC(=N)N)C(=O)N[C@H](CCCNC(=N)N)C(=O)N[C@H](CCCNC(=N)N)C(=O)N[C@H](CCCNC(=N)N)C(N)=O)C(C)C)C(C)C) [Compound 5],35 µM
5,Ac-l{d-norLeucine}rGvrlrvGlrkrrrrGy-NH2 (Ac-[dL][dNle][dR]G[dV][dR][dL][dR][dV]G[dL][dR][dK][dR][dR][dR][dR]G[dY]-NH2; SMILES CCCC[C@@H](NC(=O)[C@@H](CC(C)C)NC(C)=O)C(=O)N[C@H](CCCNC(=N)N)C(=O)NCC(=O)N[C@@H](C(=O)N[C@H](CCCNC(=N)N)C(=O)N[C@H](CC(C)C)C(=O)N[C@H](CCCNC(=N)N)C(=O)N[C@@H](C(=O)NCC(=O)N[C@H](CC(C)C)C(=O)N[C@H](CCCNC(=N)N)C(=O)N[C@H](CCCCN)C(=O)N[C@H](CCCNC(=N)N)C(=O)N[C@H](CCCNC(=N)N)C(=O)N[C@H](CCCNC(=N)N)C(=O)N[C@H](CCCNC(=N)N)C(=O)NCC(=O)N[C@H](Cc1ccc(O)cc1)C(N)=O)C(C)C)C(C)C) [Compound 11],9 µM
6,Ac-l{d-norLeucine}rGvrlrvGlrkrrrrrGΦ-NH2 (Ac-[dL][dNle][dR]G[dV][dR][dL][dR][dV]G[dL][dR][dK][dR][dR][dR][dR][dR]G[2Nal]-NH2; SMILES CCCC[C@@H](NC(=O)[C@@H](CC(C)C)NC(C)=O)C(=O)N[C@H](CCCNC(=N)N)C(=O)NCC(=O)N[C@@H](C(=O)N[C@H](CCCNC(=N)N)C(=O)N[C@H](CC(C)C)C(=O)N[C@H](CCCNC(=N)N)C(=O)N[C@@H](C(=O)NCC(=O)N[C@H](CC(C)C)C(=O)N[C@H](CCCNC(=N)N)C(=O)N[C@H](CCCCN)C(=O)N[C@H](CCCNC(=N)N)C(=O)N[C@H](CCCNC(=N)N)C(=O)N[C@H](CCCNC(=N)N)C(=O)N[C@H](CCCNC(=N)N)C(=O)N[C@H](CCCNC(=N)N)C(=O)NCC(=O)N[C@@H](Cc1ccc2ccccc2c1)C(N)=O)C(C)C)C(C)C) [Compound 12],17 µM
7,Ac-l{d-norLeucine}rGvrlrvGlrkrrrrrrr-NH2 (Ac-[dL][dNle][dR]G[dV][dR][dL][dR][dV]G[dL][dR][dK][dR][dR][dR][dR][dR][dR][dR]-NH2; SMILES CCCC[C@@H](NC(=O)[C@@H](CC(C)C)NC(C)=O)C(=O)N[C@H](CCCNC(=N)N)C(=O)NCC(=O)N[C@@H](C(=O)N[C@H](CCCNC(=N)N)C(=O)N[C@H](CC(C)C)C(=O)N[C@H](CCCNC(=N)N)C(=O)N[C@@H](C(=O)NCC(=O)N[C@H](CC(C)C)C(=O)N[C@H](CCCNC(=N)N)C(=O)N[C@H](CCCCN)C(=O)N[C@H](CCCNC(=N)N)C(=O)N[C@H](CCCNC(=N)N)C(=O)N[C@H](CCCNC(=N)N)C(=O)N[C@H](CCCNC(=N)N)C(=O)N[C@H](CCCNC(=N)N)C(=O)N[C@H](CCCNC(=N)N)C(=O)N[C@H](CCCNC(=N)N)C(N)=O)C(C)C)C(C)C) [Compound 10],13 µM
8,Ac-l{d-norLeucine}rsrrlvrGlrkrrrrrGΦ-NH2 [Compound 14],3500 µM
9,Ac-l{d-norLeucine}rsvrlr[d-norLeucine]GlrkrrrrrGΦ-NH2 (Ac-[dL][dNle][dR][dS][dV][dR][dL][dR][dNle]G[dL][dR][dK][dR][dR][dR][dR][dR]G[2Nal]-NH2; SMILES CCCC[C@@H](NC(=O)[C@@H](CCCNC(=N)N)NC(=O)[C@@H](CC(C)C)NC(=O)[C@@H](CCCNC(=N)N)NC(=O)[C@H](NC(=O)[C@@H](CO)NC(=O)[C@@H](CCCNC(=N)N)NC(=O)[C@@H](CCCC)NC(=O)[C@@H](CC(C)C)NC(C)=O)C(C)C)C(=O)NCC(=O)N[C@H](CC(C)C)C(=O)N[C@H](CCCNC(=N)N)C(=O)N[C@H](CCCCN)C(=O)N[C@H](CCCNC(=N)N)C(=O)N[C@H](CCCNC(=N)N)C(=O)N[C@H](CCCNC(=N)N)C(=O)N[C@H](CCCNC(=N)N)C(=O)N[C@H](CCCNC(=N)N)C(=O)NCC(=O)N[C@@H](Cc1ccc2ccccc2c1)C(N)=O) [Compound 16],43 µM
10,Ac-l{d-norLeucine}rsvrlrvGlrkrrrrrrr-NH2 (Ac-[dL][dNle][dR][dS][dV][dR][dL][dR][dV]G[dL][dR][dK][dR][dR][dR][dR][dR][dR][dR]-NH2; SMILES CCCC[C@@H](NC(=O)[C@@H](CC(C)C)NC(C)=O)C(=O)N[C@H](CCCNC(=N)N)C(=O)N[C@H](CO)C(=O)N[C@@H](C(=O)N[C@H](CCCNC(=N)N)C(=O)N[C@H](CC(C)C)C(=O)N[C@H](CCCNC(=N)N)C(=O)N[C@@H](C(=O)NCC(=O)N[C@H](CC(C)C)C(=O)N[C@H](CCCNC(=N)N)C(=O)N[C@H](CCCCN)C(=O)N[C@H](CCCNC(=N)N)C(=O)N[C@H](CCCNC(=N)N)C(=O)N[C@H](CCCNC(=N)N)C(=O)N[C@H](CCCNC(=N)N)C(=O)N[C@H](CCCNC(=N)N)C(=O)N[C@H](CCCNC(=N)N)C(=O)N[C@H](CCCNC(=N)N)C(N)=O)C(C)C)C(C)C) [Compound 9],20 µM
11,Ac-rrrrrraGphlrkvralrslGlrlaq-NH2 (Ac-[dR][dR][dR][dR][dR][dR][dA]G[dP][dH][dL][dR][dK][dV][dR][dA][dL][dR][dS][dL]G[dL][dR][dL][dA][dQ]-NH2; SMILES CC(=O)N[C@H](CCCNC(=N)N)C(=O)N[C@H](CCCNC(=N)N)C(=O)N[C@H](CCCNC(=N)N)C(=O)N[C@H](CCCNC(=N)N)C(=O)N[C@H](CCCNC(=N)N)C(=O)N[C@H](CCCNC(=N)N)C(=O)N[C@H](C)C(=O)NCC(=O)N1CCC[C@@H]1C(=O)N[C@H](Cc1c[nH]cn1)C(=O)N[C@H](CC(C)C)C(=O)N[C@H](CCCNC(=N)N)C(=O)N[C@H](CCCCN)C(=O)N[C@@H](C(=O)N[C@H](CCCNC(=N)N)C(=O)N[C@H](C)C(=O)N[C@H](CC(C)C)C(=O)N[C@H](CCCNC(=N)N)C(=O)N[C@H](CO)C(=O)N[C@H](CC(C)C)C(=O)NCC(=O)N[C@H](CC(C)C)C(=O)N[C@H](CCCNC(=N)N)C(=O)N[C@H](CC(C)C)C(=O)N[C@H](C)C(=O)N[C@H](CCC(N)=O)C(N)=O)C(C)C) [Compound 6],417 µM

# System: fresh human RBCs
# Experiment: not given
# Format: cell-based
# Conditions: red cells of human, 1 h, 250
# Experimental: To assess the nonspecific lytic properties of each compounds disclosed herein, each mentioned compound was tested for hemolytic properties against fresh human RBCs. Briefly, donor blood was drawn into a K2EDTA anticoagulant tube from multiple O+ donors. The blood was washed 3 times in PBS. RBCs were diluted to 2% in PBS and compounds were added at various concentrations. Samples were incubated at 37 C for 1 hr, then centrifuged at 2200 rpm for 5 min. Supernatants were measured for absorbance at 450 nm or 405 nm. The percentage hemolysis was calculated as lysis relative to 1% Triton X-100 incubation.
row,Molecule,% Hemolysis (250 uM)
1,"CCCC[C@@H](NC(=O)[C@@H](CC(C)C)NC(=O)CN(C)S(=O)(=O)c1cccc2c(N(C)C)cccc12)C(=O)N[C@H](CCCNC(=N)N)C(=O)N[C@H](CO)C(=O)N[C@@H](C(=O)N[C@H](CCCNC(=N)N)C(=O)N[C@H](CC(C)C)C(=O)N[C@H](CCCNC(=N)N)C(=O)N[C@@H](C(=O)NCC(=O)N[C@H](CC(C)C)C(=O)N[C@H](CCCNC(=N)N)C(=O)N[C@H](CCCCN)C(=O)N[C@H](CCCNC(=N)N)C(=O)N[C@H](CCCNC(=N)N)C(=O)N[C@H](CCCNC(=N)N)C(=O)N[C@H](CCCNC(=N)N)C(=O)N[C@H](CCCNC(=N)N)C(N)=O)C(C)C)C(C)C [Compound 19, DANSYL-Sarcosine-l{d-norLeucine}rsvrlrvGlrkrrrrr-NH2] (Dansyl-[Sar][dL][dNle][dR][dS][dV][dR][dL][dR][dV]G[dL][dR][dK][dR][dR][dR][dR][dR]-NH2)",86%
